This test has as its system NO-synthase inductible (iNOS). The test can be described thus: iNOS induction test: nitrites in RAW264.7 supernatants by Griess reaction after nitrate reduction. In kind it is cell-based, murins. The conditions noted are these: IFNγ + LPS. The source says: Cette hypothèse a été contrôlée en dosant les nitrites dans des surnageants de culture de macrophages murins de lignées activées en présence de AVF1. Les nitrites ont été dosés par la réaction de Griess après réduction de tous le nitrates grâce à la nitrate réductase de Pseudomonas oleoverans (Granger et al., J. Immunol., 1991, 146, 1294-1302). La spécificité de la réaction a été prouvée par l'emploi d'un inhibiteur spécifique de la synthèse du monoxyde d'azote, la N^G-monométhyl-L-arginine (L-NMMA).
Le test d'induction iNOS consiste à ensemencer les macrophages RAW264.7 dans des plaques à 24 puits à raison de 1 x 10^6 sous 1,6 ml. Après 24 heures de culture permettant d'obtenir un tapis cellulaire complet, AVF1, dilué de raison 10 dans des des doses ne donnant pas de toxicité cellulaire (de 10^-6 à 10^-8 %), est ajouté dans 100 µl par cupule soit sur des macrophages sans activateur, avec ou sans l'inhibiteur de iNOS (action directe du produit sur les macrophages) soit en présence des inducteurs, avec ou sans inhibiteur (action du produit sur des macrophages activés).
Après 24 heures de culture, les surnageants sont prélevés, centrifugés 10 minutes à 100 g à température ambiantes pour éliminer les éventuels débris cellulaires puis utilisés pour le dosage des nitrites.
Deux volumes des surnageants clarifiés sont réduits en présence d'un volume d'une suspension de Pseudomonas oleovorans à 100 mg/ml et un volume de D-MEM sans rouge de phénol. Après une incubation de 90 minutes à 37°C sans agitation, les mélanges sont centrifugés 5 minutes à 4 000 g pour éliminer les bactéries et dilués au 1/5 et au 1/10 en eau distillée stérile.
100 µl des échantillons réduits et dilués sont distribués dans des séries de 2 puits dans une plaque ELISA (maxicorp, Nunc.). 200 µl du réactif de Griess (mélange ex-temporané volume à volume des solutions de sulfamide à 1,5 g/100 ml de HCl 1,2 N (87,1 mM) - réactif A - et de naphtylènediamine à 0,15 g/100 ml d'eau stérile (5,78 mM) - réactif B -) sont ajoutés.
Cent autres µl d'échantillon servant de blanc de DO sont distribués et mélangés à 200 µl d'un mélange ex-temporané volume à volume d'eau distillée et du réactif colorimétrique A.
Après 30 minutes à température ambiante à l'obscurité, la densité optique (DO) des échantillons est lue à 540 nm au lecteur de plaque pour ELISA.
• Les contrôles du système d'induction iNOS sont composés de : • . Témoin cellules consistant en des macrophages ne recevant que du milieu de culture. • . Témoin d'induction consistant en des macrophages traités par 100 µl de lipopolysaccharide (LPS à 4 µg/ml, Difco) et par 100 µl d'interféron-γ recombinant (IFN-γ à 1 µU/ml, Boerhinger-Mannheim) afin d'activer la iNOS (Schmidt et al., Mol. Pharmacol., 1992, 41, 614-624). Les solutions mères de LPS et de IFN-γont été conservées respectivement à +4°C et à -20°C avant utilisation. • . Témoin d'inhibition spécifique pour prouver que les nitrites dosés proviennent de l'activation de la iNOS. Il consiste à incorporer à la culture un inhibiteur spécifique, la L-NMMA (N^G-monométhyl-L-arginine, Calbiochem) (Hibbs et al., Science, 1987, 235, 473-476) à des concentrations de raison 10 allant de 3 à 300 µM. Cette solution a été conservée sous parties aliquotes à -20°C avant utilisation. • Les contrôles de la réaction de Greiss sont composés de : • . Une solution de nitrate de sodium qui permet de contrôler l'activité nitrate-réductase des bactéries. • . Une gamme étalon de nitrite de sodium qui permet de doser les nitrites dans les échantillons. • Le blanc de DO de la gamme étalon contenant 100 µl d'eau distillée et 200 µl du mélange des réactifs A et B.

The mark [1] stands for this setting: L-NMMA (300 µM) alone (no AVF1).

On to `CNC(=N)NCCC[C@H](N)C(=O)O` [L-NMMA, N^G-monométhyl-L-arginine, reference compound], for which the “Concentration moyenne en nitrites en µM sur 2 échantillons” value runs as follows: (L-NMMA (3 µM) alone (no AVF1)) 20,9 µM; (L-NMMA (30 µM) alone (no AVF1)) 14,7 µM; under setting [1], 9,3 µM. Further, the “Pourcentage d'inhibition de la production de nitrite” value by setting is: (L-NMMA (3 µM) alone (no AVF1)) 0%; (L-NMMA (30 µM) alone (no AVF1)) 29%; under setting [1], 55%.

The values are drawn from EP0804408B1, “NOVEL 4-SUBSTITUTED 2,6-DI-TERT-BUTYLPHENOL COMPOUNDS, PHARMACEUTICAL COMPOSITIONS CONTAINING SAME AND PREPARATION METHOD THEREFOR” (priority 1994, dated 1996).
